Read-outs that look alike come from different tables or passages of the source.
Tests used:
[1] = target: T1, recombinant SARS-CoV-2 main protease (Mpro) (Severe acute respiratory syndrome coronavirus 2, UniProt P0DTD1); assay: biochemical; settings: FRET assay, Mpro 50 nM, substrate 10 μM
T1 construct: the main protease (Mpro; also called 3CLpro) which has an essential role in processing the polyproteins

[2] = tested on: SARS-CoV-2 (SARS-CoV2/ZG/297-20) in Vero E6 cells; assay: microbe, parasite or virus in culture; type: cell-based; settings: for inhibition at 10 µM / inhibition at 50 µM: Severe acute respiratory syndrome coronavirus 2, Vero C1008, 72 h; for inhibition at 10 µM: read-out: Antiviral Activity 10 uM; for inhibition at 50 µM: read-out: Antiviral Activity 50 uM
[3] = tested on: SARS-CoV-2 (SARS-CoV2/ZG/297-20) in Vero E6 cells; assay: Plaque reduction assay in Vero E6 cells; type: cell-based

Row | SMILES | IC50 [1] | inhibition at 10 µM [2] | inhibition at 50 µM [2] | EC50 ([2]; Severe acute respiratory syndrome coronavirus 2, Vero C1008, read-out: EC50 in antiviral assay) | reduction of viable virus in plaque reduction assay (in words) [3] | EC50 ([2]; Severe acute respiratory syndrome coronavirus 2, Vero C1008, Vero E6 infected with SARS-CoV-2 at an MOI of 0.05, read-out: EC50 in antiviral assay)
1 | O=C1CCC(N2C(=O)c3cccc(OCCCCCCCCC(=O)Nc4cccn([C@@H](CC5CC5)C(=O)N[C@@H](C[C@@H]5CCNC5=O)C(=O)C(=O)NCc5ccccc5)c4=O)c3C2=O)C(=O)N1 (stereo partly drawn) [BT153, N-(1-((S)-1-(((S)-4-(benzylamino)-3,4-dioxo-1-((S)-2-oxopyrrolidin-3-yl)butan-2-yl)amino)-3-cyclopropyl-1-oxopropan-2-yl)-2-oxo-1,2-dihydropyridin-3-yl)-9-((2-(2,6-dioxopiperidin-3-yl)-1,3-dioxoisoindolin-4-yl)oxy)nonanamide] | < 100 nM | < 75% | < 75% | 3200 nM | efficient reduction of viable virus | –
2 | O=C1CCC(N2C(=O)c3cccc(OCCCCCCCCNC(=O)c4ccc5cncc(N6C(=O)NC7(CC(c8ccccc8Cl)C7)C6=O)c5c4)c3C2=O)C(=O)N1 (stereo not shown) [Compound C10778N, 4-(2-(2-chlorophenyl)-6,8-dioxo-5,7-diazaspiro[3.4]octan-7-yl)-N-(8-((2-(2,6-dioxopiperidin-3-yl)-1,3-dioxoisoindolin-4-yl)oxy)octyl)isoquinoline-6-carboxamide] | < 100 nM | < 75% | > 75% | – | efficiently reduces viable virus | 1700 nM
